# “Also recorded” adds a separate entry of the source.
# What was measured:
# G795A iPSC-microglia [1] = assay: Caspase 3/7 cell death assay (IncuCyte, 24 h imaging); format: cell-based, human; settings: 250 nM, 500 nM, 1 μm, versus DMSO control
# Text: (§1) FIGS. 4A, 4B, 4C, 4D, and 4E show human stem cell-derived microglia are also susceptible to and killed by CSF1R inhibition in vitro. […] Images captured on Incucyte S3 live-cell imager. […] Images captured on Incucyte S3 live-cell imager. […] Images captured on Incucyte S3 live-cell imager. […] Images captured on Incucyte S3 live-cell imager. […] For all panels, n=4 images in six independent wells were quantified. Data represented as mean values±SEM.
# (§2) Strategy 1: A crystal structure of the CSF1R receptor bound to an antagonist (PMID: 31434879) to predict amino acid substitutions that may sterically hinder the binding of CSF1R antagonists while not impairing the normal binding of ATP into the same binding pocket. The crystal structure of PLX5622 bound to human CSF1R was obtained and the ATP binding pocket was examined (FIG. 7A). Through molecular modeling single amino acid changes were predicted that would likely impair the binding of PLX5622 or PLX3397 or other CSF1R antagonists while not disrupting normal ATP binding to CSF1R. […] Other mutations could also be explored to prevent binding (FIG. 7D). […] The resulting iPSCs were then differentiated into microglia and exposed to varying concentrations of either PLX3397 or PLX5622. To detect microglial cell death (apoptosis) a caspase-3/7 fluorogenic reporter was used. […] FIG. 4F provided representative images of cell density (phase-contrast microscopy, 1st column) and fluorescent Caspase-3/7 activity (2nd column) across each dose of PLX3397 and PLX5622.
# (§3) Resistance to each of the CSF1R inhibitors tested was quantified using a fluorogenic caspase 3/7 detector (Essen BioScience) and time-lapse imaging over 24 hours.
# (§4) Cell death assay: iPS-microglia were plated at 70K cells per 96-well plate (6 wells per line per condition). At time 0, all microglia were treated with IncuCyte Caspase-3/7 Green Apoptosis Assay Reagent 1:1000. Cells were maintained in the described medium: fresh complete medium+0.1% DMSO, complete media+250 nM PLX3397, complete medium+500 nM PLX3397, complete medium+1 μm PLX3397, complete medium+250 nM PLX5622, complete medium+500 nM PLX5622, complete medium+1 μm PLX5622, complete medium+250 nM Edicotinib, complete medium+500 nM Edicotinib, complete medium+1 μm Edicotinib, complete medium+250 nM BLZ945, complete medium+500 nM BLZ945, complete medium+1 μm BLZ945. Four 20× images per well were collected every hour for 24 hours. Using IncuCyte 2020B software, image masks for phase confluence (visually gated out apoptotic cells) as well as caspase 3/7 signal (green) were generated. Graphs display caspase normalized to phase confluence, completed with 3 lines: WT, G795A, G795C (see FIGS. 4A, 4B, 4C, 4D, and 4E).
# G795C iPSC-microglia = assay: as above; format: cell-based, human; settings: 250 nM, 500 nM, 1 μm, versus DMSO control
# Text: as §1, §2, §3, §4
# WT microglia [2] = assay: as above; format: cell-based, human; settings: 250 nM, 500 nM, 1 μm, versus DMSO control
# Text: as §1, §2, §3, §4
# G795A iPSC-microglia [3] = assay: LIVE/DEAD viability/cytotoxicity assay; format: cell-based, human; settings: 500 nM or 1 uM, 24 hours
# Procedure: (§5) FIGS. 5A and 5B show G795A iPSC-derived microglia are resistant to CSF1R antagonist-induced cell death. As cells can die from processes other than caspase-mediated apoptosis, it is important to determine whether the G795A mutation provides a more broad-based resistance to any form of cell death induced by CSF1R antagonists. Therefore, G795A and wild-type (WT) iPSC-microglia were treated for 24 hours with either 500 nM (FIG. 5A) or 1 uM (FIG. 5B) of DMSO vehicle control or one of four CSF1R antagonists; PLX3397, PLX5622, Edicotinib, and BLZ945. The percent of live versus dead cells was then quantified using a two-color viability/cytotoxicity approach (Thermo L3224; LIVE/DEAD™ Viability/Cytotoxicity Kit). Very few dead microglia are observed 24 hours after treatment with DMSO. […] Live cells are denoted with a circle.
# [4] = tested on: wild-type (WT) iPSC-microglia; assay: LIVE/DEAD viability/cytotoxicity assay; format: cell-based, human; settings: 500 nM or 1 uM, 24 hours
# Procedure: as §5
# G795A xMGs = assay: Xenotransplanted human microglia in adult mice, PLX3397 chow, immunohistochemistry; format: in vivo; settings: 600 mg/kg in rodent chow ad libitum, 4 weeks
# Text: (§6) FIGS. 11A, 11B, 110, 11D, 11E, 11F, 11G, 11H, 11I, and 11J show G795A iPSC-derived microglia are resistant to CSF1R […] treatment and enable robust engraftment of human microglia within the adult mammalian brain. Xenotransplantation-compatible mice received bilateral stereotactic intrahippocampal injections of 500,000 iPSC-derived human microglia (xMGs) at 2-months of age. Mice received xMGs differentiated from either a homozygous CSF1R-resistant G795A human IPSO line or an isogenic unmodified Wad-Type human iPSC. At […], mice were treated with 600 mg/kg of PLX3397 in rodent chow ad libitum for 4 weeks duration. Mice were then sacrificed, and half-brains were examined by fluorescent immunohistochemistry and confocal microscopy.
# wild-type human xMGs = assay: as above; format: in vivo; settings: 600 mg/kg in rodent chow ad libitum, 4 weeks
# Text: as §6
# [5] = tested on: CSF1R-G795A human iPSC-microglia; assay: Quantification of human iPSC-microglial engraftment (Ku80+/Iba1+) in adult hCSF1 mice; format: in vivo; settings: after CSF1R-G795A iPSC-microglia transplantation, 600 mg/kg PLX3397 in food
# Procedure: In contrast, when CSF1R-G795A iPSC-microglia transplantation is followed with treatment of mice for 10 days with PLX3397 containing mouse chow (600 mg/kg PLX3397 in food), the percent of human microglia increases to almost 25%. After 30 days of PLX3397 treatment (600 mg/kg PLX3397 in food), 90-95% of all microglia in the brain are human as evidenced by co-expression of Ku80 and IBA1. By transplanting CSF1R-G795A iPSC-microglia and varying the concentration and duration of CSF1R antagonist treatment either before, during, or after transplantation, one can control the degree of human iPSC-microglial engraftment.
# MUT1 (G795A) microglia = assay: RNA-seq after 24-hour treatment versus DMSO; format: cell-based, human
# Text: (§7) FIGS. 2A, 2B, 2C, 2D, 2E, and 2F show selected CSF1R mutations have little effect on transcriptomic signature while simultaneously imparting resistance to PLX5622.
# MUT2 (G795C) microglia = assay: RNA-seq after 24-hour treatment versus DMSO; format: cell-based, human
# Text: as §7
# WT microglia [6] = assay: RNA-seq after 24-hour treatment versus DMSO; format: cell-based, human; settings: FDR≤0.05, log 2(FC)≥±1
# Text: as §7
SMILES,"caspase 3/7 levels (cell death, apoptosis) (G795A iPSC-microglia [1])","caspase 3/7 levels (cell death, apoptosis) (G795C iPSC-microglia)","caspase 3/7 levels (cell death, apoptosis) (WT microglia [2])",cell death (live versus dead cells) (G795A iPSC-microglia [3]),cell death (live versus dead cells) [4],survival and expansion of transplanted xMGs in the brain (G795A xMGs),survival of transplanted xMGs in the brain (wild-type human xMGs),percent of human microglia (Ku80+/Iba1+) of total microglia ([5]; 10 days) [%],percent of human microglia (Ku80+/Iba1+) of total microglia ([5]; 30 days),transcriptomic alterations versus DMSO-treated cells (MUT1 (G795A) microglia),transcriptomic alterations versus DMSO-treated cells (MUT2 (G795C) microglia),transcriptomic alterations versus DMSO-treated cells (WT microglia [6])
CNC(=O)c1cc(Oc2ccc3nc(N[C@@H]4CCCC[C@H]4O)sc3c2)ccn1 [BLZ945],no significant increase in caspase levels,no significant increase in caspase levels,significant levels of increased caspase,little-to-no cell death,substantial cell death,,,,,,,
CC1(C)CC=C(c2nc(C3CC(C)(C)OC(C)(C)C3)ccc2NC(=O)c2nc(C#N)c[nH]2)CC1 [Edicotinib],no significant increase in caspase levels,no significant increase in caspase levels,significant levels of increased caspase,little-to-no cell death,substantial cell death,,,,,,,
FC(F)(F)c1ccc(CNc2ccc(Cc3c[nH]c4ncc(Cl)cc34)cn2)cn1 [PLX3397],complete resistance to cell death; also recorded: no significant increase in caspase levels,complete resistance to cell death; also recorded: no significant increase in caspase levels,robust dose-dependent induction of apoptosis; also recorded: significant levels of increased caspase,little-to-no cell death,substantial cell death,proliferate and expand,only a handful of wild-type human xMGs survive,~25,90-95%,,,
COc1ncc(F)cc1CNc1ccc(Cc2c[nH]c3ncc(C)cc23)c(F)n1 [PLX5622],complete resistance to cell death; also recorded: no significant increase in caspase levels,complete resistance to cell death; also recorded: no significant increase in caspase levels,robust dose-dependent induction of apoptosis; also recorded: significant levels of increased caspase,little-to-no cell death,substantial cell death,,,,,failed to significantly alter gene expression,failed to significantly alter gene expression,induced significant transcriptomic alterations

# From patent US12421517B2, “Genetic modification of mammalian cells to confer resistance to CSF1R antagonists” (THE REGENTS OF THE UNIVERSITY OF CALIFORNIA, priority 2021, dated 2025)
